A value given as a limit tells only on which side of the number the result lay.

The values below come from patent publication US12485263B2, “Device for delivering an antimicrobial composition into a medical device” (ICU Medical, Inc., priority 2018, dated 2025).

For data set [1] the following is noted: 60 kilogram person; cited from earlier work.
Data set [2] relates to Gram positive bacteria, Gram negative bacteria, and fungi. The data set can be described thus: Kill of microbes by dissolved chlorhexidine / chlorhexidine acetate (stated, no test protocol).

For `CC(=O)O.CC(=O)O.NC(=N\CCCCCC/N=C(N)/N=C(\N)Nc1ccc(Cl)cc1)/N=C(\N)Nc1ccc(Cl)cc1` [chlorhexidine acetate], the “dose considered safe for direct injection into bloodstream” value in data set [1] is not below 500 µg. Moreover, the “concentration that can quickly kill most microbes” value in data set [2] (Gram positive bacteria, Gram negative bacteria, and fungi) was “greater than 200 μg/mL”. Also, the “time to kill microbes” value in data set [2] (at concentration greater than 200 μg/mL, in many cases) is given as “under 1 minute”.
